The structures appear in SMILES notation. Calls of active or inactive are those of the source. Bounds are passed on as bounds.

Assay [1] in a line: Dd2 parasite growth inhibition in erythrocytes – SYBR Green, dry powder samples, set 9, dose response (AID 1159568). It is filed as functional, cell-based.
The target of assay [2] is Sphingosine 1-phosphate receptor 2 (Homo sapiens, UniProt O95136). Kind of assay: Dose Response Cell Based Assay for Agonists of the S1P2 Receptor. [Related pubchem assays: 729, 736, 843 ]. It is filed as functional.
A further assay addresses Phospholipase D2 (Homo sapiens, UniProt O14939). The experiment in a line: PLD2 Cellular Concentration Response Study. It is filed as functional.
The next assay deals with Phospholipase D1 (Homo sapiens, UniProt Q13393). The experiment in a line: PLD1 Cellular Concentration Response Study. It is filed as functional.
Assay [3] in a line: inhibitors acting on PAX2 in cells – cell-based, plate reader, dry powder samples, selectivity assay for PAX8 inhibitor project, dose response (AID 743048).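 Note: HEK293 cells carrying a WT1 promoter luciferase reporter driven by expressed Pax2; potency is for inhibition of Pax2 driven reporter signal.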 It is filed as functional.
Assay [4] can be described thus: OVCAR4 cell viability loss – plate reader, dry powder, SA11, cytotoxicity control for PAX8 inhibitor project, dose response (AID 743150). It is filed as functional, cell-based. The conditions noted are these: OVCAR-4.
Assay [5] can be described thus: A2780 cell killing – plate reader, dry powder samples, cytotoxicity control, dose response (AID 743046). It is filed as functional, cell-based.
A short description of assay [6]: loss of viability in HepG2 cells – cell-based, CellTiter-Glo, cherry-picked, cytotoxicity control for Shn3 inhibitor project, dose response (AID 624134). It is filed as functional. For orientation: In ATP-based viability assays light output follows the ATP content of the culture.
The nature of assay [7]: reduction of Shn3 3'UTR-driven luciferase in osteoblasts – cell-based, Clone20 osteoblasts, firefly luciferase, cherry-picked, dose response (AID 624132).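 Note: firefly luciferase luminescence from reporter carrying the Shn3 3'UTR in osteoblasts.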 It is filed as functional.
A short description of assay [8]: non-specific 3'UTR reporter inhibition in Clone20-Shn3RL – cell-based, Renilla luciferase, cherry-picked, counter-screen for Shn3 inhibitor project, dose response (AID 624133). It is filed as functional.
Another assay concerns the target Paired box protein Pax-8 (Homo sapiens, UniProt Q06710). The experiment in a line: PAX8 transcriptional activity inhibition in RMG-I – RMG-I cells, luciferase, cherry-pick, dose response (AID 687027).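 Note: luciferase reporter driven by Pax8 target thyroperoxidase promoter measured by SteadyGlo luminescence.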 It is filed as functional, cell-based.
A short description of assay [9]: HGIII-sPLA2 enzyme inhibition potency – biochemical, QFRET, IC50, dose response (AID 743457).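 Note: green fluorescence rise as the enzyme cleaves BODIPY PC-A2 in liposomes.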
Assay [10] in a line: general mammalian cell viability loss – inhibitor set, cherry-pick, set 2, cytotoxicity control for miR-122 modulator project, dose response (AID 720697). It is filed as functional, cell-based.
A short description of assay [11]: general mammalian cell viability loss – activator set, cherry-pick, cytotoxicity control for miR-122 modulator project, dose response (AID 720690).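 Note: HEK293T human cells scored for general mammalian cytotoxicity.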 It is filed as functional, cell-based.
Assay [12] is described as follows: cells. It is filed as functional, cell-based.
Assay [13] in a line: COV434 cell viability loss – plate reader, dry powder, SA7, cytotoxicity control for PAX8 inhibitor project, dose response (AID 743145). It is filed as functional, cell-based.
Assay [14] has as its target Heat shock protein HSP 90-alpha (Homo sapiens, UniProt P07900). It is filed as functional, organism-based.
Assay [15] is described as follows: PAX8-dependent cell viability loss – plate reader, dry powder, dose response (AID 743049). It is filed as functional, cell-based.
Assay [16] is described as follows: NIH3T3 cell viability loss – ATP luminescence, mouse fibroblasts, counter-screen, dose response (AID 2010).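 Note: cells exposed to compound for about 90 hours before reading.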 It is filed as functional, cell-based. In general terms: Counterscreens check selectivity or assay interference.
Assay [17] can be described thus: Trypanosoma cruzi growth suppression in host cells – NIH3T3 host cells, beta-gal luminescence, confirmation (AID 2044).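 Note: intracellular parasites grown in NIH/3T3 mouse fibroblasts as host cells; luminescent beta-galactosidase reporter signal from transgenic T. cruzi replicating inside host cells; inhibitors lower the luminescence signal.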 It is filed as functional, cell-based.
The next assay has as its system INS1. The experiment in a line: INS-1E survival protection against cytokine death – cell-based, luminescence, retest, dose response (AID 449756).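 Note: cell death triggered by IL-1 beta plus TNF-alpha plus IFN-gamma mixture; protective hits raise ATP signal compared with cytokine alone wells.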 It is filed as functional. Conditions: Rattus norvegicus, INS1.
A short description of assay [18]: COV362 cell viability loss – plate reader, dry powder, SA12, cytotoxicity control for PAX8 inhibitor project, dose response (AID 743144). It is filed as functional, cell-based.
Assay [19] can be described thus: toxicity toward immortalized ovarian surface epithelium – cell-based, plate reader, dry powder samples, cytotoxicity control for PAX8 inhibitor project, dose response (AID 743045). It is filed as functional.
The nature of assay [20]: OVCAR-3 cell viability loss – plate reader, dry powder samples, PAX8 inhibitor project, dose response (AID 743044). It is filed as functional, cell-based.
Assay [21] in a line: IGROV1 cell killing – plate reader, dry powder samples, PAX8 inhibitor project, dose response (AID 743043). It is filed as functional, cell-based. The conditions noted are these: IGROV-1.
A short description of assay [22]: OV-90 cell viability loss – plate reader, dry powder, SA8, PAX8 inhibitor project, dose response (AID 743149). It is filed as functional, cell-based.
The nature of assay [23]: cells. It is filed as functional, cell-based. This is another data set of the same source.
The nature of assay [24]: PAX5 cellular inhibition readout – cell-based, plate reader, dry powder samples, selectivity assay for PAX8 inhibitor project, dose response (AID 743047).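 Note: HEK293 cells carrying a Pax5 driven CD19 promoter luciferase reporter; potency of inhibitors that lower reporter luminescence.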 It is filed as functional.
Assay [25] is described as follows: Potency on glucagon-like peptide 1 release, dose-response in NCI-H716 cell line, half maximal inhibitory concentration (AID 1117344). It is filed as functional, cell-based.
A short description of assay [26]: IC50 of insulin release inhibition, rat insulinoma INS-1E line, 5 mM glucose, cell-based (AID 1117331). It is filed as functional.
A short description of assay [27]: glucagon-like peptide-1 release potency in STC-1, concentration-response, half-maximal inhibitory concentration in the STC-1 line (AID 1117345). It is filed as functional, cell-based.
Assay [28] can be described thus: viability loss in HepG2 hepatoma cells – cell-based, ATP luminescence, dry powder, set 2, cytotoxicity control, dose response (AID 743129). It is filed as functional.
Assay [29] in a line: viability loss in A549 lung cancer cells – cell-based, CellTiter-Glo luminescence, dry powder, set 5, cytotoxicity control, dose response (AID 743158). It is filed as functional.
Assay [30] deals with Melanin-concentrating hormone receptor 1 (Homo sapiens, UniProt Q99705). Kind of assay: Fluorescence-based counterscreen for antagonists of the G-protein coupled receptor 7 (GPR7): cell-based high throughput dose response assay to identify antagonists of the melanin-concentrating hormone receptor 1 (MCHR1). It is filed as functional.
For assay [31], the target named is T1, Neuropeptides B/W receptor type 1 (Homo sapiens, UniProt P48145).
T1 sequence (P48145 whole entry): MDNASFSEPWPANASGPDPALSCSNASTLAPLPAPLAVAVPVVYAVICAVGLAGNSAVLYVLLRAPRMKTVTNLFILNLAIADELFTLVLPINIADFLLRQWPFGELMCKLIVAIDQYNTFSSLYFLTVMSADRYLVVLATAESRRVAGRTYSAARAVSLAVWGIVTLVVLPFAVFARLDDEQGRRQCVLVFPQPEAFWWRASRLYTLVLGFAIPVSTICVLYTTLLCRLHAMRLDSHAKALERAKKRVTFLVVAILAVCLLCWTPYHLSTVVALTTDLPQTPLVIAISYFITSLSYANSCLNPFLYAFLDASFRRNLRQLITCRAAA
Kind of assay: Fluorescence-based dose response cell-based high throughput screening assay to identify antagonists of the G-protein coupled receptor 7 (GPR7). [Related pubchem assays: 1952 (Screening assay (GPR7 antagonists).), 1880 (Summary AID.)]. It is filed as functional.

Sequence of Phospholipase D1 (Q13393 whole entry): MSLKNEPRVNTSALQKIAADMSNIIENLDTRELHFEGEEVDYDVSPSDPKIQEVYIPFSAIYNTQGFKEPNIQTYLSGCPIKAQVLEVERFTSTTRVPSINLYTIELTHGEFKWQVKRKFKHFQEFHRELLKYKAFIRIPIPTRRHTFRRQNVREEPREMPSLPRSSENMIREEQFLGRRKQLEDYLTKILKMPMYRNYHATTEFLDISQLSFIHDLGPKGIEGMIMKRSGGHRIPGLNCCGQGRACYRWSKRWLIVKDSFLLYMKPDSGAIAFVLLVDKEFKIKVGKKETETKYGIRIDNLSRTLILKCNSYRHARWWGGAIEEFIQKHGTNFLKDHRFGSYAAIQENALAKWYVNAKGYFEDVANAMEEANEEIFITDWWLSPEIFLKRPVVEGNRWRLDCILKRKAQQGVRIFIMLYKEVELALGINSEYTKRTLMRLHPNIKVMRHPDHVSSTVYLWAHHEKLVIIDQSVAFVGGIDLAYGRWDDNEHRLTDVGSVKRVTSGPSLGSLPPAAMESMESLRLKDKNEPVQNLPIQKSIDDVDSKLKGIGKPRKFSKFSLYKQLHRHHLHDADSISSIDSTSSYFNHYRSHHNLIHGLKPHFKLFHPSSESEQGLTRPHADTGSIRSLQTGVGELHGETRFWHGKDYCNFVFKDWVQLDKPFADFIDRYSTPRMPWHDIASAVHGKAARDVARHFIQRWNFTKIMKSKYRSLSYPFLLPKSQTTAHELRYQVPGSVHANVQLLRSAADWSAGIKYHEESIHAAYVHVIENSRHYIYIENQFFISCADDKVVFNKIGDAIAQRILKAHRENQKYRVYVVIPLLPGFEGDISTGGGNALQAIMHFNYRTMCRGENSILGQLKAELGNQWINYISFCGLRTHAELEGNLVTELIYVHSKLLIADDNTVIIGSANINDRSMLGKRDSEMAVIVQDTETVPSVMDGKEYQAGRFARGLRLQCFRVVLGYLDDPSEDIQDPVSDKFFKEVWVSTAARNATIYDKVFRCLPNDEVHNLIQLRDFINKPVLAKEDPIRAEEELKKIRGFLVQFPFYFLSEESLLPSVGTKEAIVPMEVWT
Sequence of Phospholipase D2 (O14939 whole entry): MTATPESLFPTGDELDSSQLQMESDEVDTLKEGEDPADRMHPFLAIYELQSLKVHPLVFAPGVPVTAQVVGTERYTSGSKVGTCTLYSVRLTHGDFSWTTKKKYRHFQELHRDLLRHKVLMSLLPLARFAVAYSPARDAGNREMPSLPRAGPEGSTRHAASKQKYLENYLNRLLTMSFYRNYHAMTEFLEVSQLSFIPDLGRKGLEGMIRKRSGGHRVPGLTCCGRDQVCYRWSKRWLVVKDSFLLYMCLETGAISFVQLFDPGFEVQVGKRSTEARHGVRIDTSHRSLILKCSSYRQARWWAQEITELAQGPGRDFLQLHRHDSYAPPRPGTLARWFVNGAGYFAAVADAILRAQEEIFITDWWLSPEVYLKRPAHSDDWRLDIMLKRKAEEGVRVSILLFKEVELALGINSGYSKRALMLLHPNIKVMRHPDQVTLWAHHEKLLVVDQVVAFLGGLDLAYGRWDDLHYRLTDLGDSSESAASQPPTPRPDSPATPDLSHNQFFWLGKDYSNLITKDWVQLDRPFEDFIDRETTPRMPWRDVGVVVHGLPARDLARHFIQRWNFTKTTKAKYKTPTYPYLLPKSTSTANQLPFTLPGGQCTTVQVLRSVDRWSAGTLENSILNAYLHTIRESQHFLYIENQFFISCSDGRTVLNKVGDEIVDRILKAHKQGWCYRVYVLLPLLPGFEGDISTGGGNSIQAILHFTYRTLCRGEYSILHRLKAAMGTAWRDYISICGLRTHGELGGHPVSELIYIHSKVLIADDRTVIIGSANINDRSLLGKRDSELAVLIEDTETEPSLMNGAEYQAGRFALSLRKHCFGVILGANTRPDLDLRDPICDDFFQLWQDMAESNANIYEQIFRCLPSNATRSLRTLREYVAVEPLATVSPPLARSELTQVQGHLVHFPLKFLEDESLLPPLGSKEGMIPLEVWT
Sequence of Melanin-concentrating hormone receptor 1 (Q99705 whole entry): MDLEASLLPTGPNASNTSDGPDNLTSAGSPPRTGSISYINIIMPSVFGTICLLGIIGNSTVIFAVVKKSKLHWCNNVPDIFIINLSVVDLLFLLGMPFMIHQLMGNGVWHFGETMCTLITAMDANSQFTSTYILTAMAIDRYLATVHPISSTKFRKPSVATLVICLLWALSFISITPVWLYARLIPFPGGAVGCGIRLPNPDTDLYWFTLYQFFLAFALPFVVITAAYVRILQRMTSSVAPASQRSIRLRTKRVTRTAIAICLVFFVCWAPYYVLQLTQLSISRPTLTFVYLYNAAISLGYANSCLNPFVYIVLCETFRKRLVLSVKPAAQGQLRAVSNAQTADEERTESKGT
Sequence of Paired box protein Pax-8 (Q06710 whole entry): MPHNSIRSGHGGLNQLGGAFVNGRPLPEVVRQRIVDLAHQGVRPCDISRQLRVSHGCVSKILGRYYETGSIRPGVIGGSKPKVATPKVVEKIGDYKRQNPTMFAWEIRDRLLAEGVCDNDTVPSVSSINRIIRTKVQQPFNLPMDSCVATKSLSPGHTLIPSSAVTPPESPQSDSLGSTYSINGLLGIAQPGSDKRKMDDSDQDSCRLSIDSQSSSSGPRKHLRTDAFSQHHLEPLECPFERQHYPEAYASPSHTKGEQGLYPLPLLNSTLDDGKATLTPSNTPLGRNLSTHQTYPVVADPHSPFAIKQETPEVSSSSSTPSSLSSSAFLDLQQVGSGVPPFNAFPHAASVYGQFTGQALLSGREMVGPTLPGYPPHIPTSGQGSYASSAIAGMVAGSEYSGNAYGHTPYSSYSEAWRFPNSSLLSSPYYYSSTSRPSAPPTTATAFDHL
Sequence of Sphingosine 1-phosphate receptor 2 (O95136 whole entry): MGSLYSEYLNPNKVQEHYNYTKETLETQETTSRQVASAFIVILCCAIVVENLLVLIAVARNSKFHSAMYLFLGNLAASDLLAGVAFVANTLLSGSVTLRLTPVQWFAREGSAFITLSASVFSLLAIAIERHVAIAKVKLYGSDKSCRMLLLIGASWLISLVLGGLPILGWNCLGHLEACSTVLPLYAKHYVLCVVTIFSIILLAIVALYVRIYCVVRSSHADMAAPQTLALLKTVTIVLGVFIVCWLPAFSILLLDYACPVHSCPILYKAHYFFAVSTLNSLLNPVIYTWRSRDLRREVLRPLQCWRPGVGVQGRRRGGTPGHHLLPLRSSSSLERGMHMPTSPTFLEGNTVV

As for `C[C@H]1CCCCO[C@H](CN(C)S(=O)(=O)c2ccccc2)[C@@H](C)CN([C@@H](C)CO)C(=O)c2cc(NC(=O)Nc3ccc4c(c3)OCO4)ccc2O1`, the concentration at half-maximal activity (AC50) (as a rule, the concentration at which the activity in the assay is half-maximal) in [1] was 2.22 µM (active).
As for `C(=C\c1ccccc1)/CSc1nnc(-c2ccccc2)n1Cc1ccco1`, the EC50 – broadly, the concentration needed to bring the measured effect to its halfway point – in assay [2] is given as > 50 µM (not active).
As to `O=C(NCCN1CCC2(CC1)C(=O)NCN2Cc1ccccc1)c1ccc2ccccc2c1`, the half-maximal inhibitory concentration (IC50) – broadly, the point on the concentration scale where inhibition reaches its midpoint – at Phospholipase D2 was 0.89 µM (active); at Phospholipase D1, 8.26 µM (active).
For the compound `CCCCC(=O)NC(c1ccccc1OC)c1ccc2cccnc2c1O` (stereo not given), the AC50 was 3.22 µM (active) in assay [3]; 16.3 µM (active) in assay [4]; 8.16 µM (active) in [5]; 2.55 µM (active) in [6]; 1.19 µM (active) in [7]; 3.18 µM (active) in assay [8]. For the same compound, the concentration at half-maximal activity (AC50) on Paired box protein Pax-8 is 2.44 µM (active); in assay [10] it was 2.22 µM (active); in [11], 3.36 µM (active); in [13] it was 6.89 µM (active); in assay [14], 4.38 µM (active); in [15], 20.1 µM (active). For the same compound, the AC50 in the assay with INS1 was 0.718 µM (active); in assay [18], 7.92 µM (active); in [19] it was 5.77 µM (active); in assay [20], 4.87 µM (active); in assay [21], 7.55 µM (active); in assay [22], 10.7 µM (active). In addition, the concentration at half-maximal activity (AC50) in assay [24] was 3.51 µM (active). Moreover, the IC50 in assay [9] was > 122 µM (inactive). For the same compound, the EC50 is > 350 µM (not active) in the assay “cells [12]”, 1.27 µM (active) in assay [16], 0.435 µM (active) in [17] and 6.29 µM (active) in the assay “cells [23]”.
`CC(COc1ccccc1)NN` (stereo not given) [PHENOXYPROPAZINE]: the IC50 in [25] was > 40 µM (inactive); in assay [26], > 33.3 µM (inactive); in assay [27], 27.2 µM (inactive).
Regarding `CCOC(=O)c1c(-c2ccc(C(C)(C)C)cc2)csc1NC(=O)CN1CCN(C)CC1`, the AC50 is 16.4 µM (active) in assay [28] and 21.4 µM (active) in assay [29].
In the case of `O=C(O)c1ccc(NCc2cccc(Br)c2)cc1`, the IC50 in assay [30] and in assay [31] was > 43.8 µM (not active) each time.

The values are drawn from ChEMBL document CHEMBL1201862, “PubChem BioAssay data set” (2004).
